Data reported in the NIST ThermoML archive (doi:10.1016/j.fluid.2015.10.034).
± gives the expanded uncertainty stated by the source.

Settings: Liquid, Frequency=8 MHz, Pulse-echo method

[2H]O[2H] [water-d2]
Settings	speed of sound [m/s]
278.21 K, 150.19 kPa	1326 ± 0.68
278.21 K, 152.01 kPa	1326 ± 0.68
278.21 K, 5021.9 kPa	1332.5 ± 0.68
278.21 K, 5025.1 kPa	1332.5 ± 0.68
278.21 K, 9983.4 kPa	1339.3 ± 0.69
278.21 K, 9986 kPa	1339.3 ± 0.69
278.21 K, 15113 kPa	1346.4 ± 0.69
278.21 K, 15117 kPa	1346.5 ± 0.69
278.21 K, 20109 kPa	1353.6 ± 0.69
278.21 K, 20152 kPa	1353.7 ± 0.69
278.22 K, 2465.2 kPa	1329.1 ± 0.68
278.22 K, 2465.6 kPa	1329.1 ± 0.68
283.21 K, 154.9 kPa	1347.8 ± 0.69
283.21 K, 156.96 kPa	1347.8 ± 0.69
283.21 K, 2494.8 kPa	1351.1 ± 0.69
283.21 K, 2498 kPa	1351.1 ± 0.69
283.21 K, 5043.1 kPa	1354.6 ± 0.69
283.21 K, 5043.6 kPa	1354.6 ± 0.69
283.21 K, 9942.4 kPa	1361.6 ± 0.69
283.21 K, 9943.6 kPa	1361.6 ± 0.69
283.21 K, 15142 kPa	1369 ± 0.7
283.21 K, 15143 kPa	1369.1 ± 0.7
283.21 K, 20195 kPa	1376.4 ± 0.7
283.21 K, 20198 kPa	1376.4 ± 0.7
293.2 K, 179.82 kPa	1384.1 ± 0.7
293.2 K, 181.19 kPa	1384.1 ± 0.7
293.2 K, 2473.1 kPa	1387.5 ± 0.7
293.2 K, 2473.2 kPa	1387.5 ± 0.7
293.2 K, 5119.8 kPa	1391.4 ± 0.71
293.2 K, 5125.6 kPa	1391.4 ± 0.71
293.2 K, 10078 kPa	1398.8 ± 0.71
293.2 K, 10086 kPa	1398.8 ± 0.71
293.2 K, 15047 kPa	1406.2 ± 0.71
293.2 K, 15052 kPa	1406.2 ± 0.71
293.2 K, 20333 kPa	1414.2 ± 0.97
293.2 K, 20361 kPa	1414.2 ± 0.97
313.2 K, 109.61 kPa	1432.5 ± 0.72
313.2 K, 109.88 kPa	1432.5 ± 0.72
313.2 K, 2458.2 kPa	1436.3 ± 0.72
313.2 K, 2468.5 kPa	1436.3 ± 0.72
313.2 K, 5110.5 kPa	1440.5 ± 0.72
313.2 K, 5110.8 kPa	1440.5 ± 0.72
313.2 K, 15060 kPa	1456.3 ± 0.73
313.2 K, 20267 kPa	1464.5 ± 0.73
313.2 K, 20276 kPa	1464.6 ± 0.73
333.2 K, 195.58 kPa	1456.2 ± 0.73
333.2 K, 211.29 kPa	1456.2 ± 0.73
333.2 K, 2499.2 kPa	1460.1 ± 0.73
333.2 K, 2499.6 kPa	1460.1 ± 0.73
333.2 K, 5054.7 kPa	1464.5 ± 0.73
333.2 K, 5055 kPa	1464.5 ± 0.73
333.2 K, 10044 kPa	1473 ± 2.3
333.2 K, 10071 kPa	1473.1 ± 2.3
333.2 K, 20122 kPa	1490 ± 0.74
333.2 K, 20126 kPa	1490 ± 0.74
353.2 K, 142.15 kPa	1460.6 ± 0.73
353.2 K, 144.59 kPa	1460.6 ± 0.73
353.2 K, 2522.3 kPa	1465.1 ± 0.73
353.2 K, 2528 kPa	1465 ± 0.73
353.2 K, 5032.1 kPa	1469.7 ± 0.74
353.2 K, 5034.1 kPa	1469.7 ± 0.74
353.2 K, 10091 kPa	1479 ± 0.74
353.2 K, 10094 kPa	1479.1 ± 0.74
353.2 K, 15060 kPa	1488 ± 0.74
353.2 K, 15062 kPa	1488.1 ± 0.74
